Test results taken from ChEMBL document CHEMBL6120994, “Unravelling the potential of natural chelating agents in the control of Staphylococcus aureus and Pseudomonas aeruginosa biofilms” (Eur J Med Chem, 2025).
Active and inactive are the calls of the source. The rule behind the calls is not given here.

Columns and labels:
Staphylococcus aureus [1] = assay: Inhibition of virulence production in Staphylococcus aureus CECT 976 biofilms assessed as diameter of siderophores halo at 1/2XMTC measured after 48 hrs (reference value: 12 mm); format: functional
Staphylococcus aureus [2] = assay: Antibacterial activity against Staphylococcus aureus CECT 976 assessed as inhibition of bacterial growth by measuring inhibition zone diameter at 1000 ug/ml incubated for 24 hrs in presence of methicillin by disc diffusion method (reference value: 19.5 +/- 1.29 mm); format: functional; settings: read-out: DIZ
Staphylococcus aureus [3] = assay: Inhibition of virulence production in pre-established 24 hr-old Staphylococcus aureus CECT 976 biofilms assessed as diameter of protease halo at 10XMTC measured after 72 hrs in presence of 1/4XMIC tobramycin (reference value: 12.5 to 12.8 mm); format: functional
Staphylococcus aureus [4] = assay: Inhibition of virulence production in pre-established 24 hr-old Staphylococcus aureus CECT 976 biofilms assessed as diameter of gelatinases halo at 10XMTC measured after 48 hrs in presence of 1/2XMIC tobramycin (reference value: 9.3 to 9.5 mm); format: functional
Staphylococcus aureus [5] = assay: Inhibition of virulence production in Staphylococcus aureus CECT 976 biofilms assessed as diameter of lipases halo at 1XMTC measured after 48 hrs (reference value: 11.8 to 12.5 mm); format: functional
Cell membrane [6] = assay: Disruption of membrane integrity in Staphylococcus aureus CECT 976 biofilm assessed as increase in PI uptake at 500 ug/ml measured after 24 hrs in presence of 1/8X to 1/2XMIC tobramycin by flow cytometry; format: subcellular; settings: dose 500.0 µg/ml
[7] = Metal chelating activity at iron(III) in chrome azurol sulphonate solution at 1000 ug/ml incubated for 30 mins by spectrophotometric analysis; settings: dose 1000.0 µg/ml
Staphylococcus aureus [8] = assay: Inhibition of virulence production in pre-established 24 hr-old Staphylococcus aureus CECT 976 biofilms assessed as diameter of lipases halo at 1XMTC measured after 48 hrs (reference value: 11.5 to 11.8 mm); format: functional
Staphylococcus aureus [9] = assay: Inhibition of virulence production in pre-established 24 hr-old Staphylococcus aureus CECT 976 biofilms assessed as diameter of lipases halo at 10XMTC measured after 48 hrs (reference value: 11.8 to 12 mm); format: functional
Staphylococcus aureus [10] = assay: Inhibition of virulence production in Staphylococcus aureus CECT 976 biofilms assessed as diameter of siderophores halo at 1/2XMTC measured after 48 hrs in presence of 1/4XMIC tobramycin (reference value: 10.5 +/-0.6 mm); format: functional
Staphylococcus aureus [11] = assay: Antibiofilm activity against Staphylococcus aureus CECT 976 assessed as reduction in biofilm cells culturability at 500 to 1000 ug/ml measured after 24 hrs by visual counting method; format: functional, organism-based; settings: dose 500-1000 µg/ml
Cell membrane [12] = assay: Disruption of membrane integrity in pre-established 24 hr-old Staphylococcus aureus CECT 976 assessed as PI uptake at 10000 ug/ml measured after 24 hrs in presence of 1/4XMIC to MIC tobramycin by PI staining based flow cytometry; format: subcellular; settings: dose 10000.0 µg/ml
Cell membrane [13] = assay: Disruption of membrane integrity in pre-established 24 hr-old Staphylococcus aureus CECT 976 biofilm at 10XMTC measured after 24 hrs by PI staining based flow cytomtery; format: subcellular
Staphylococcus aureus [14] = assay: Inhibition of virulence production in Staphylococcus aureus CECT 976 biofilms assessed as diameter of protease halo at 1/2XMTC measured after 72 hrs in presence of 1/4XMIC tobramycin (reference value: 11.5 to 12.3 mm); format: functional
HepG2 = assay: Induction of ROS production in human HepG2 cells assessed as DCF fluorescence at 90 to 1000 ug/ml measured after 24 hrs by DCFH-DA staining based fluorescence analysis; format: toxicity, cell-based; settings: hepg2, 24 h, at 90 to 1000 µg/mL, dose 90-1000 µg/ml
Pseudomonas aeruginosa [15] = assay: Antibiotic adjuvant activity against Pseudomonas aeruginosa ATCC 10145 assessed as potentiation of ciprofloxacin-induced antibiofilm activity by measuring reduction in metabolic activity of biofilm cells at 500 ug/ml in presence of ciprofloxacin by resazurin staining based fluorescence analysis; format: functional, organism-based; settings: dose 500.0 µg/ml
Staphylococcus aureus [16] = assay: Antibacterial activity against Staphylococcus aureus CECT 976 assessed as inhibition of bacterial growth by measuring inhibition zone diameter at 1000 ug/ml incubated for 24 hrs in presence of fusidic acid by disc diffusion method (reference value: 27.75 +/- 0.5 mm); format: functional; settings: read-out: DIZ
Pseudomonas aeruginosa [17] = assay: Antibacterial activity against Pseudomonas aeruginosa ATCC 10145 assessed as inhibition of bacterial growth by measuring inhibition zone diameter at 100 ug/ml incubated for 24 hrs in presence of tobramycin by disc diffusion method (reference value: 13.25 +/-0.5 mm); format: functional; settings: read-out: DIZ
Staphylococcus aureus [18] = assay: Antibiofilm activity against preestablished 24 hr-old Staphylococcus aureus CECT 976 assessed as reduction in metabolic activity of biofilm cells at 10XMTC by resazurin staining based fluorescence analysis; format: functional
Pseudomonas aeruginosa [19] = assay: Antibiotic adjuvant activity against Pseudomonas aeruginosa ATCC 10145 assessed as potentiation of ciprofloxacin-induced antibacterial activity by measuring ciprofloxacin MIC at 15.6 ug/ml measured after 24 hrs by checkerboard assay (reference value: […] ug/ml); format: functional; settings: dose 15.6 µg/ml
Staphylococcus aureus [20] = assay: Inhibition of virulence production in pre-established 24 hr-old Staphylococcus aureus CECT 976 biofilms assessed as diameter of protease halo at 10XMTC measured after 72 hrs in presence of 1/2XMIC tobramycin (reference value: 11.8 to 12.3 mm); format: functional
Staphylococcus aureus [21] = assay: Inhibition of virulence production in pre-established 24 hr-old Staphylococcus aureus CECT 976 biofilms assessed as diameter of protease halo at 10XMTC measured after 72 hrs in presence of 1XMIC tobramycin (reference value: 11.5 to 12 mm); format: functional
Staphylococcus aureus [22] = assay: Antibiotic adjuvant activity against preestablished 24 hr-old Staphylococcus aureus CECT 976 assessed as potentiation of tobramycin-induced antibiofilm activity by measuring reduction of metabolic activity of biofilm cells at 10000 ug/ml in presence of 1/4XMIC tobramycin by resazurin staining based fluorescence analysis (reference value: 37%); format: functional
Staphylococcus aureus [23] = assay: Antibiotic adjuvant activity against Staphylococcus aureus CECT 976 assessed as potentiation of tobramycin-induced antibiofilm activity by measuring reduction in metabolic activity of biofilm cells at 500 ug/ml in presence of tobramycin by resazurin staining based fluorescence analysis; format: functional, organism-based; settings: dose 500.0 µg/ml
Staphylococcus aureus [24] = assay: Inhibition of virulence production in pre-established 24 hr-old Staphylococcus aureus CECT 976 biofilms assessed as diameter of siderophores halo at 10XMTC measured after 48 hrs in presence of 1XMIC tobramycin (reference value: 11.3 +/-0.5 mm); format: functional
Staphylococcus aureus [25] = assay: Inhibition of virulence production in pre-established 24 hr-old Staphylococcus aureus CECT 976 biofilms assessed as diameter of gelatinases halo at 10XMTC measured after 48 hrs (reference value: 10.8 to 11 mm); format: functional
Staphylococcus aureus [26] = assay: Inhibition of virulence production in pre-established 24 hr-old Staphylococcus aureus CECT 976 biofilms assessed as diameter of lipases halo at 10XMTC measured after 48 hrs in presence of 1XMIC tobramycin (reference value: 11.8 to 12.3 mm); format: functional

| Compound | Activity (Staphylococcus aureus [1]) | zone of inhibition at 1000 µg/mL (Staphylococcus aureus [2]) | Activity (Staphylococcus aureus [3]) | Activity (Staphylococcus aureus [4]) | Activity (Staphylococcus aureus [5]) | Activity (Cell membrane [6]) | Activity [7] | Activity (Staphylococcus aureus [8]) | Activity (Staphylococcus aureus [9]) | Activity (Staphylococcus aureus [10]) | Activity (Staphylococcus aureus [11]) | Activity (Cell membrane [12]) | Activity (Cell membrane [13]) | Activity (Staphylococcus aureus [14]) | Activity (HepG2) | Activity (Pseudomonas aeruginosa [15]) | zone of inhibition at 1000 µg/mL (Staphylococcus aureus [16]) | zone of inhibition at 100 µg/mL (Pseudomonas aeruginosa [17]) | inhibition (INH) (Staphylococcus aureus [18]) | MIC (Pseudomonas aeruginosa [19]) | other results |
| --- | --- | --- | --- | --- | --- | --- | --- | --- | --- | --- | --- | --- | --- | --- | --- | --- | --- | --- | --- | --- | --- |
| O=c1cc(CO)occ1O [KOJIC ACID] | 10 mm | 16 mm | 0 mm | 0 mm | 3.3 mm | inactive | 85% | 2.3 mm | 2.5 mm | 9.5 mm | inactive | 50% | 90% | 0 mm | ~ 80% | inactive | 26.8 mm | 17.2 mm | 80% | 16 µg/mL | Activity (Staphylococcus aureus [20]): 0 mm; Activity (Staphylococcus aureus [21]): 0 mm; inhibition at 10000 µg/mL (Staphylococcus aureus [22]): 80%; Activity (Staphylococcus aureus [23]): inactive; Activity (Staphylococcus aureus [24]): 10 mm; Activity (Staphylococcus aureus [25]): 0 mm; Activity (Staphylococcus aureus [26]): 2 mm |
| Cc1occc(=O)c1O [MALTOL] | 10 mm | 15.5 mm | 0 mm | 0 mm | 3 mm | inactive | 90% | 2.8 mm | 2.5 mm | 9.5 mm | inactive | 50% | 90% | 0 mm | ~ 116% | inactive | 28.2 mm | 16.2 mm | 80% | 16 µg/mL | Activity (Staphylococcus aureus [20]): 0 mm; Activity (Staphylococcus aureus [21]): 0 mm; inhibition at 10000 µg/mL (Staphylococcus aureus [22]): 80%; Activity (Staphylococcus aureus [23]): inactive; Activity (Staphylococcus aureus [24]): 10.3 mm; Activity (Staphylococcus aureus [25]): 0 mm; Activity (Staphylococcus aureus [26]): 2.3 mm |
